# Assay results from ChEMBL document CHEMBL5291721, “A preclinical secondary pharmacology resource illuminates target-adverse drug reaction associations of marketed drugs” (Nat Commun, 2023).
# Columns and labels:
# [1] = molecular target: T1, Adenosine receptor A3 (Homo sapiens, UniProt P0DMS8)
# T1 sequence (P0DMS8 whole entry): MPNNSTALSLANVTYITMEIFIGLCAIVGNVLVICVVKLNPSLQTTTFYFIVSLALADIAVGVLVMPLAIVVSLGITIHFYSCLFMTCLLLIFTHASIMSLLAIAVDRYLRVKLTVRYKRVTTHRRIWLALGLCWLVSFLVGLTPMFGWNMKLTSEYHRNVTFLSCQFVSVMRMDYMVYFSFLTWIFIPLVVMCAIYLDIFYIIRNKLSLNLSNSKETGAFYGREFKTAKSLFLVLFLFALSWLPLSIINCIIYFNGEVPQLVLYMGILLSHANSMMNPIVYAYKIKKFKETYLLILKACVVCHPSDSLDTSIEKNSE
# [2] = molecular target: T2, Alpha-1A adrenergic receptor (Homo sapiens, UniProt P35348)
# T2 sequence (P35348 whole entry): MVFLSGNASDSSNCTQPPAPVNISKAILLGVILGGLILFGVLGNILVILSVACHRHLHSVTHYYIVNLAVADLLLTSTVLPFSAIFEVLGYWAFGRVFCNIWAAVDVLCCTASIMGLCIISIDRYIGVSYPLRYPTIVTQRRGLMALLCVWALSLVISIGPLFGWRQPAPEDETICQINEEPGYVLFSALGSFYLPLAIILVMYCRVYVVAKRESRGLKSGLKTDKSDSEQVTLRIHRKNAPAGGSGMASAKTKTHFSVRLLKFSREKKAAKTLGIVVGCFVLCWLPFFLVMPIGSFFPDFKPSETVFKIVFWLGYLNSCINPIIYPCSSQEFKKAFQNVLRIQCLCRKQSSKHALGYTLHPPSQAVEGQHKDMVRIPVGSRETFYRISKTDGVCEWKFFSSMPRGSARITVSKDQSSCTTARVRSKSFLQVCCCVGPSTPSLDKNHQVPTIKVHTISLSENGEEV
# [3] = molecular target: Motilin receptor (Homo sapiens, UniProt O43193)
# [4] = molecular target: 5-hydroxytryptamine receptor 2A (Homo sapiens, UniProt P28223); assay type: functional, cell-based
# [5] = molecular target: Mu-type opioid receptor (Homo sapiens, UniProt P35372)
# [6] = molecular target: Melanocortin receptor 4 (Homo sapiens, UniProt P32245)
# [7] = molecular target: T3, Muscarinic acetylcholine receptor M1 (Homo sapiens, UniProt P11229); assay type: functional
# T3 sequence (P11229 whole entry): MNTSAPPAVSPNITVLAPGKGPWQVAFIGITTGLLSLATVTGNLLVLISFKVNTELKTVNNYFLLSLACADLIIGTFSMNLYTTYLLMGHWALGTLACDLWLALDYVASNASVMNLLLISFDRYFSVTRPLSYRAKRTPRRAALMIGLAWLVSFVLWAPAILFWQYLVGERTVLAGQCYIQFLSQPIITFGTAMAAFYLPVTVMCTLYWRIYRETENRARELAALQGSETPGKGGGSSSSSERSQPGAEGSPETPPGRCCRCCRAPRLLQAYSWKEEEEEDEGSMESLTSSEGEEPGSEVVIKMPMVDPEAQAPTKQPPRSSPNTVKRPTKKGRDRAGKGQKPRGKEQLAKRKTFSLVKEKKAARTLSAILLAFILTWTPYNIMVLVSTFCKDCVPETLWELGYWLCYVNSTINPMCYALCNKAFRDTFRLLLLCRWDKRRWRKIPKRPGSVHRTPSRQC
# [8] = molecular target: T4, Progesterone receptor (Homo sapiens, UniProt P06401); assay type: functional
# T4 sequence (P06401 whole entry): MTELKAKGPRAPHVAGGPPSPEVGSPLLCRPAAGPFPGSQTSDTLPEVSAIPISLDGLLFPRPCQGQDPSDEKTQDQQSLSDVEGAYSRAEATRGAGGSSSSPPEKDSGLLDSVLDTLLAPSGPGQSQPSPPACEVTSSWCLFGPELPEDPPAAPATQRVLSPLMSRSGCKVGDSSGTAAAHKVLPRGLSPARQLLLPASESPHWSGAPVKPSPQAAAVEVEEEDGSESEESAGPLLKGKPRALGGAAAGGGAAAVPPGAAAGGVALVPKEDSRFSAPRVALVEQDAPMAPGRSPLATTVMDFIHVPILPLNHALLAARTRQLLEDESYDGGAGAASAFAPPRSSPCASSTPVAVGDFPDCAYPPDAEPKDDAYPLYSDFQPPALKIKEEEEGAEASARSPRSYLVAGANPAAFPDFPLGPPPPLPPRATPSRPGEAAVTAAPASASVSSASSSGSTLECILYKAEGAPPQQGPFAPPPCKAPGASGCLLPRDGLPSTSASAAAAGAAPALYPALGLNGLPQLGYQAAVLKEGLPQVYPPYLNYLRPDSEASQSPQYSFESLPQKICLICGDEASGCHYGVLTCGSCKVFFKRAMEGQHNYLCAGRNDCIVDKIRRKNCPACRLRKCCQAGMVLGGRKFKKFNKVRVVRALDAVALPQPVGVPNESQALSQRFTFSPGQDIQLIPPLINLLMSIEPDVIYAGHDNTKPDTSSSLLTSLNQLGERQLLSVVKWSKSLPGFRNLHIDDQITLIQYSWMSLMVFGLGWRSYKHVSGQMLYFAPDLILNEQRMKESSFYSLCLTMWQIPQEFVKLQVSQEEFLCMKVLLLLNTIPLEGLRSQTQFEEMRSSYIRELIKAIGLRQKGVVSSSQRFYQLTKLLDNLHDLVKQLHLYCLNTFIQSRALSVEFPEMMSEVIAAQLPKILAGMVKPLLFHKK
# [9] = molecular target: T5, Prostaglandin G/H synthase 1 (Rattus norvegicus, UniProt Q63921); assay type: functional
# T5 sequence (Q63921 whole entry): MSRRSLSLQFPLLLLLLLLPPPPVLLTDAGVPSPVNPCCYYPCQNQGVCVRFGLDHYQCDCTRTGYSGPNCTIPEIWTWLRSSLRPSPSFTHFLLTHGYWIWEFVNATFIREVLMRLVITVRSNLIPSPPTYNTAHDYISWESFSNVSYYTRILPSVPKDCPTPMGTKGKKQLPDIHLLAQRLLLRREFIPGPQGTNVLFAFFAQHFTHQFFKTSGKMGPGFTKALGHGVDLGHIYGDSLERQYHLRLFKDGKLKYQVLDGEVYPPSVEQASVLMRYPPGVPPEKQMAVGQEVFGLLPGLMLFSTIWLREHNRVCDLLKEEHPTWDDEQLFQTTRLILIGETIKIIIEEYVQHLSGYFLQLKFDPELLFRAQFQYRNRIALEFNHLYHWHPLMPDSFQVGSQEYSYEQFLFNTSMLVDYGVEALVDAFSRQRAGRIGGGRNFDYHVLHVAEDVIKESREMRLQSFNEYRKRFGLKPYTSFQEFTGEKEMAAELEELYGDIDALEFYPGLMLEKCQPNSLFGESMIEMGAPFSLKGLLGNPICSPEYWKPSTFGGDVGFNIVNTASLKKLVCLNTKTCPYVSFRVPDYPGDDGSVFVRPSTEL
# Further: assay procedure not described here.
# Chain of Melanocortin receptor 4 (P32245 whole entry): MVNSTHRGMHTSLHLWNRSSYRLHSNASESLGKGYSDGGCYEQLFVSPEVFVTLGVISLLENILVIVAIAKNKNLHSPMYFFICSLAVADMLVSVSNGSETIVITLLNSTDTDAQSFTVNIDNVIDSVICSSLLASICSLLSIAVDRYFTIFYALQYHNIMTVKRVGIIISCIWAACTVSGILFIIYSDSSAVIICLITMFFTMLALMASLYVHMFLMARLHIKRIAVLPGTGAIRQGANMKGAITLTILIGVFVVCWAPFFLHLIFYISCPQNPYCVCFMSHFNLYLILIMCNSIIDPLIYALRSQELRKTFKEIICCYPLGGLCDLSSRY
# Chain of Motilin receptor (O43193 whole entry): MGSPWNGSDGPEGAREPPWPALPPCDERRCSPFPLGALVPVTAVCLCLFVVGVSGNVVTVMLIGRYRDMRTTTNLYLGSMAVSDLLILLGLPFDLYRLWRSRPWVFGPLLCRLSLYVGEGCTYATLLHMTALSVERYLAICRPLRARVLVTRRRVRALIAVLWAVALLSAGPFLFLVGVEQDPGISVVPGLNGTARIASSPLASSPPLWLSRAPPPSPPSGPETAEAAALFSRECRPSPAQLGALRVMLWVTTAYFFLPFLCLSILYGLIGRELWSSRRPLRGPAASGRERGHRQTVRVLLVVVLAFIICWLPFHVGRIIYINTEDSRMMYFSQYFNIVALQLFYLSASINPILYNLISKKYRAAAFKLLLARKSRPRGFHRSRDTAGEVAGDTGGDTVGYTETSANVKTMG
# Chain of Mu-type opioid receptor (P35372 whole entry): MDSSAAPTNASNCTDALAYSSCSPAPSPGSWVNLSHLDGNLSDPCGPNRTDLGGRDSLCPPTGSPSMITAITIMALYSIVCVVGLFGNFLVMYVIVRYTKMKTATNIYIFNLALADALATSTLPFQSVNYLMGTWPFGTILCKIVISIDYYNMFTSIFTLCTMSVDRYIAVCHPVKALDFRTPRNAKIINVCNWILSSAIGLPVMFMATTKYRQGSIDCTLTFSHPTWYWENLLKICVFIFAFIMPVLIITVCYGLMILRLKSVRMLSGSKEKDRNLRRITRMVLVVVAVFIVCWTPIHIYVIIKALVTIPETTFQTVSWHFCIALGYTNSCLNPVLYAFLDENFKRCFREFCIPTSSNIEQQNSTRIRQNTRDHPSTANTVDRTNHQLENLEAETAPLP
# Chain of 5-hydroxytryptamine receptor 2A (P28223 whole entry): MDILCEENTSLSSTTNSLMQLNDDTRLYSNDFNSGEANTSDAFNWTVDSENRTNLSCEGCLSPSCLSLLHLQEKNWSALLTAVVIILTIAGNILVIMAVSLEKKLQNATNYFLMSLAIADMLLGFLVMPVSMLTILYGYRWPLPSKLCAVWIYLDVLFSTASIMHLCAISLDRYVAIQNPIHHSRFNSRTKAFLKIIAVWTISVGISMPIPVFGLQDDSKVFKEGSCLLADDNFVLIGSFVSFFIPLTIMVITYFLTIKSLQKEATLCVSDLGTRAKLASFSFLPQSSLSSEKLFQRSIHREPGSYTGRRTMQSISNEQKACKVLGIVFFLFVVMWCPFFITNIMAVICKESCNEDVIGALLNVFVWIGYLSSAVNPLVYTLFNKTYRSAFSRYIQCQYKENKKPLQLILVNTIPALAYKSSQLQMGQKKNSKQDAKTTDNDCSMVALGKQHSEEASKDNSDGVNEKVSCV
Compound,AC50 [1],AC50 [2],AC50 [3],AC50 [4],AC50 [5],AC50 [6],AC50 [7],AC50 [8],AC50 [9]
O=C(O)CCCCCCCC(=O)O [AZELAIC ACID],> 10 µM,> 30 µM,> 10 µM,> 10 µM,> 30 µM,> 10 µM,> 10 µM,> 10 µM,> 10 µM
O=C(O)[C@H](CC(=O)N1C[C@H]2CCCC[C@H]2C1)Cc1ccccc1 [MITIGLINIDE],> 10 µM,> 10 µM,> 10 µM,> 10 µM,> 30 µM,> 10 µM,> 10 µM,> 10 µM,> 10 µM
CCCC(C)C1(CC)C(=O)NC(=O)NC1=O (configuration not stated) [PENTOBARBITAL],> 10 µM,> 30 µM,> 10 µM,> 10 µM,> 30 µM,> 10 µM,> 30 µM,> 10 µM,> 10 µM
O=C(O)C[C@H](O)C[C@H](O)/C=C/c1c(C2CC2)nc2ccccc2c1-c1ccc(F)cc1 [PITAVASTATIN],> 30 µM,> 10 µM,> 10 µM,> 30 µM,> 30 µM,> 10 µM,> 30 µM,> 30 µM,> 30 µM
C[C@H](CSC(=O)c1ccccc1)C(=O)N1C[C@@H](Sc2ccccc2)C[C@H]1C(=O)O [ZOFENOPRIL],> 10 µM,> 10 µM,> 10 µM,> 10 µM,> 30 µM,> 10 µM,> 10 µM,> 10 µM,> 10 µM
C[C@]1(O)CC[C@H]2[C@@H]3CCC4=CC(=O)CC[C@]4(C)[C@@]3(F)[C@@H](O)C[C@@]21C [FLUOXYMESTERONE],> 10 µM,> 30 µM,> 10 µM,> 10 µM,> 30 µM,> 10 µM,> 30 µM,,> 10 µM
C[C@H](N)[C@H](O)c1cccc(O)c1 [METARAMINOL],> 10 µM,30 µM,> 10 µM,> 10 µM,> 30 µM,> 10 µM,> 10 µM,> 10 µM,> 10 µM
CCCCc1ncc(/C=C(\Cc2cccs2)C(=O)O)n1Cc1ccc(C(=O)O)cc1 [EPROSARTAN],> 10 µM,> 10 µM,> 10 µM,> 30 µM,> 10 µM,> 10 µM,> 10 µM,,> 30 µM
C=CCC1(C(C)CC)C(=O)NC(=O)NC1=O (configuration not stated) [TALBUTAL],> 10 µM,> 10 µM,> 10 µM,> 10 µM,> 30 µM,> 10 µM,> 10 µM,> 10 µM,> 10 µM
CC(C[N+](C)(C)C)OC(N)=O (configuration not stated) [BETHANECHOL],> 10 µM,> 10 µM,> 10 µM,> 10 µM,> 30 µM,> 10 µM,> 10 µM,> 10 µM,> 10 µM
C=CCC1(CC(C)C)C(=O)NC(=O)NC1=O [BUTALBITAL],> 10 µM,> 30 µM,> 10 µM,> 10 µM,> 30 µM,> 10 µM,> 30 µM,> 10 µM,> 10 µM
Cc1cccc(C(C)c2cnc[nH]2)c1C (configuration not stated) [MEDETOMIDINE],> 30 µM,0.11 µM,> 30 µM,> 30 µM,> 30 µM,> 30 µM,> 30 µM,> 30 µM,> 30 µM
CN1C(=O)C(O)N=C(c2ccccc2)c2cc(Cl)ccc21 (configuration not stated) [TEMAZEPAM],> 30 µM,> 10 µM,> 10 µM,> 30 µM,> 30 µM,> 30 µM,> 10 µM,,> 30 µM
CCCC(=O)O[C@]1(C(=O)CO)CC[C@H]2[C@@H]3CCC4=CC(=O)CC[C@]4(C)[C@H]3[C@@H](O)C[C@@]21C [HYDROCORTISONE BUTYRATE],> 10 µM,> 10 µM,> 10 µM,> 10 µM,> 30 µM,> 10 µM,> 10 µM,,> 10 µM
